In the experiment the test system is L1210 leukemia ip in BDF1 mice, survival T/C. Put plainly: NCI In Vivo Anticancer Drug Screen. Data for tumor model L1210 Leukemia (intraperitoneal) in B6D2F1 (BDF1) mice. The note with it: endpoint: mean survival time, higher = longer survival. The essentials: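 In this screen, tumor-bearing mice given compound are compared to those given vehicle, and their survival values are reported as a treated-to-control quotient.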

Where [1] appears, read: dose: 100.0 mg/kg/injection, schedule: Q01DX001 (ip), vehicle: saline.
[2] abbreviates: dose: 200.0 mg/kg/injection, schedule: Q01DX001 (ip), vehicle: saline.
Where [3] appears, read: dose: 100.0 mg/kg/injection, schedule: Q01DX009 (ip), vehicle: Klucel (hydroxypropylcellulose) (HPC).
[4] abbreviates: dose: 100.0 mg/kg/injection, schedule: Q04DX003 (ip), vehicle: Klucel (hydroxypropylcellulose) (HPC).
The mark [5] stands for this setting: dose: 200.0 mg/kg/injection, schedule: Q01DX009 (ip), vehicle: Klucel (hydroxypropylcellulose) (HPC).
The mark [6] stands for this setting: dose: 200.0 mg/kg/injection, schedule: Q04DX003 (ip), vehicle: Klucel (hydroxypropylcellulose) (HPC).
Where [7] appears, read: dose: 400.0 mg/kg/injection, schedule: Q01DX009 (ip), vehicle: Klucel (hydroxypropylcellulose) (HPC).
[8] abbreviates: dose: 400.0 mg/kg/injection, schedule: Q04DX003 (ip), vehicle: Klucel (hydroxypropylcellulose) (HPC).
Where [9] appears, read: dose: 100.0 mg/kg/injection, schedule: Q04DX003 (ip), vehicle: saline with Tween-80.
[10] abbreviates: dose: 200.0 mg/kg/injection, schedule: Q04DX003 (ip), vehicle: saline with Tween-80.
The mark [11] stands for this setting: dose: 400.0 mg/kg/injection, schedule: Q04DX003 (ip), vehicle: saline with Tween-80.
The mark [12] stands for this setting: dose: 100.0 mg/kg/injection, schedule: Q04DX002 (ip), vehicle: Klucel (hydroxypropylcellulose) (HPC).
The mark [13] stands for this setting: dose: 200.0 mg/kg/injection, schedule: Q04DX002 (ip), vehicle: Klucel (hydroxypropylcellulose) (HPC).
Where [14] appears, read: dose: 25.0 mg/kg/injection, schedule: Q01DX009 (ip), vehicle: saline.
The mark [15] stands for this setting: dose: 50.0 mg/kg/injection, schedule: Q01DX009 (ip), vehicle: saline.
The mark [16] stands for this setting: dose: 100.0 mg/kg/injection, schedule: Q04DX002 (ip), vehicle: saline with Tween-80.

Where “and” joins values, the source holds several entries; their conditions need not be identical. Equal entries are not always repeated. Inconclusive results and toxic doses are left out.

In the case of `Cc1c(/C=C/[N+](=O)[O-])cc(C)c2c3c(oc12)CCCC3`, the T/C is, setting by setting: (dose: 50.0 mg/kg/injection, schedule: Q01DX001 (ip), vehicle: saline) 98 % of control; under setting [1], 93 % of control; under setting [2], 102 % of control.

On to `c1ccc(-c2ccc([Si](c3ccccc3)(c3ccccc3)c3ccccc3)cc2)cc1`, for which the T/C under setting [3] is 102 % of control; the T/C under setting [4] was 105 % of control; the T/C under setting [5] is 96 % of control; the T/C under setting [6] was 94 % of control; the T/C under setting [7] is 93 % of control; the T/C under setting [8] was 96 % of control.

Consider `O=C(NNC(=O)c1ccc(Cl)cc1)Nc1ccc(F)c(Cl)c1`, for which the T/C was 97 % of control under setting [3], 104 % of control under setting [5] and 100 % of control under setting [7].

With `CC1CCC(NC(=O)N(CCF)N=O)CC1` (configuration not stated), the T/C is 115 % of control (dose: 8.0 mg/kg/injection, schedule: Q01DX001 (ip), vehicle: other); 433 % of control (dose: 26.0 mg/kg/injection, schedule: Q01DX001 (ip), vehicle: other); 500 % of control (dose: 40.0 mg/kg/injection, schedule: Q01DX001 (ip), vehicle: other); 437 % of control (dose: 60.0 mg/kg/injection, schedule: Q01DX001 (ip), vehicle: other).

Regarding `COc1ccccc1C(C#N)NCCCNC(C#N)c1ccccc1OC` (configuration not stated), the T/C is 89 % of control (dose: 10.0 mg/kg/injection, schedule: Q01DX001 (ip), vehicle: saline) and 110 % of control (dose: 20.0 mg/kg/injection, schedule: Q01DX001 (ip), vehicle: saline).

Regarding `COC(=O)C1C=CCC=C1OC` (configuration not stated), the T/C is, setting by setting: under setting [9], 96 % of control; under setting [10], 105 % of control; under setting [11], 91 % of control.

As for `CCOC(=S)SCC(=O)c1ccc(Br)cc1`, the T/C by setting is: under setting [12], 101 % of control; under setting [13], 92 % of control; (dose: 400.0 mg/kg/injection, schedule: Q04DX002 (ip), vehicle: Klucel (hydroxypropylcellulose) (HPC)) 86 % of control.

For the compound `COc1ccc2c(c1OC)CCN1C3=C(CC4(CC3)OCCO4)C(=O)CC21` (configuration not stated), the T/C is, setting by setting: under setting [9], 97 % of control; under setting [10], 88 % of control; under setting [11], 101 % of control.

Take `CCCCC[C@@H](CN(C)C)[C@H](O)/C=C/c1ccc(Cl)cc1`: the T/C (dose: 12.5 mg/kg/injection, schedule: Q01DX009 (ip), vehicle: saline) was 102 % of control; the T/C (dose: 12.5 mg/kg/injection, schedule: Q04DX003 (ip), vehicle: saline) was 88 % of control; the T/C under setting [14] is 98 % of control; the T/C (dose: 25.0 mg/kg/injection, schedule: Q04DX003 (ip), vehicle: saline) is 93 % of control; the T/C under setting [15] is 93 % of control and 97 % of control; the T/C (dose: 50.0 mg/kg/injection, schedule: Q04DX003 (ip), vehicle: saline) is 93 % of control. Also, the T/C (dose: 200.0 mg/kg/injection, schedule: Q04DX003 (ip), vehicle: saline) is 102 % of control.

For `c1cn[nH]c1`, the T/C by setting is: (dose: 50.0 mg/kg/injection, schedule: Q01DX001 (ip), vehicle: carboxymethylcellulose (CMC)) 96 % of control; (dose: 100.0 mg/kg/injection, schedule: Q01DX001 (ip), vehicle: carboxymethylcellulose (CMC)) 100 % of control; (dose: 200.0 mg/kg/injection, schedule: Q01DX001 (ip), vehicle: carboxymethylcellulose (CMC)) 96 % of control.

`Cn1c(CO)nc2c1c(=O)[nH]c(=O)n2C`: the T/C (dose: 100.0 mg/kg/injection, schedule: Q01DX001 (ip), vehicle: other) was 98 % of control; the T/C (dose: 200.0 mg/kg/injection, schedule: Q01DX001 (ip), vehicle: other) was 98 % of control; the T/C (dose: 400.0 mg/kg/injection, schedule: Q01DX001 (ip), vehicle: other) was 95 % of control.

As for `CCc1c(/C=C2/OC(=O)NC2=O)[nH]c(=S)[nH]c1=O`, the T/C is 97 % of control under setting [9], 96 % of control under setting [10] and 96 % of control under setting [11].

In the case of `O=C(/C=C/c1ccc2c(c1)OCO2)/C=C/c1ccc2c(c1)OCO2`, the T/C was 89 % of control under setting [14]; 88 % of control under setting [15]; 91 % of control (dose: 100.0 mg/kg/injection, schedule: Q01DX009 (ip), vehicle: saline); 88 % of control (dose: 200.0 mg/kg/injection, schedule: Q01DX009 (ip), vehicle: saline).

For the compound `CNc1c(C)cc(C)c(NC)c1C`, the T/C under setting [16] is 107 % of control.

In the case of `COc1ccccc1-n1c(=O)c(N=Nc2ccccc2)c(O)n(-c2ccccc2Cl)c1=S`, the T/C is, setting by setting: (dose: 50.0 mg/kg/injection, schedule: Q04DX003 (ip), vehicle: saline with Tween-80) 94 % of control; under setting [9], 94 % of control.

With `C1=Nc2ccccc2/C1=C/C=C/c1ccccc1`, the T/C runs as follows: (dose: 100.0 mg/kg/injection, schedule: Q04DX002 (ip), vehicle: gum acacia) 88 % of control; (dose: 200.0 mg/kg/injection, schedule: Q04DX002 (ip), vehicle: gum acacia) 95 % of control; (dose: 400.0 mg/kg/injection, schedule: Q04DX002 (ip), vehicle: gum acacia) 95 % of control.

For `CC12CCC(O)CC1=CCC1C2CCC2(C)c3nc(C#N)c(=N)n(O)c3CC12` (configuration not stated), the T/C is 94 % of control under setting [12] and 105 % of control under setting [13].

Consider `O=C(O)COc1ccccc1Cl`, for which the T/C was 105 % of control under setting [4], 104 % of control under setting [6] and 107 % of control under setting [8].

In the case of `CC12CCC(O1)C1C[N+](C)(CCC#N)CC12` (configuration not stated), the T/C (dose: 55.0 mg/kg/injection, schedule: Q01DX Z (ip), vehicle: saline) was 105 % of control; the T/C (dose: 83.0 mg/kg/injection, schedule: Q01DX Z (ip), vehicle: saline) was 100 % of control; the T/C (dose: 125.0 mg/kg/injection, schedule: Q01DX Z (ip), vehicle: saline) was 105 % of control.

On to `CCOC(=O)c1c(/N=C/c2cc(Br)ccc2O)sc2c1CCCC2`, for which the T/C by setting is: under setting [16], 109 % of control; (dose: 200.0 mg/kg/injection, schedule: Q04DX002 (ip), vehicle: saline with Tween-80) 102 % of control; (dose: 400.0 mg/kg/injection, schedule: Q04DX002 (ip), vehicle: saline with Tween-80) 98 % of control.

With `O=C(NCCN1CCCCC1)C(O)(c1ccccc1)C1CCCCC1` (configuration not stated), the T/C by setting is: (dose: 75.0 mg/kg/injection, schedule: Q01DX001 (ip), vehicle: other) 97 % of control; (dose: 150.0 mg/kg/injection, schedule: Q01DX001 (ip), vehicle: other) 100 % of control.

Take `CCCCCCCCCC(=O)NN1CCOCC1`: the T/C was 105 % of control (dose: 100.0 mg/kg/injection, schedule: Q01DX009 (ip), vehicle: saline with Tween-80); 89 % of control (dose: 200.0 mg/kg/injection, schedule: Q01DX009 (ip), vehicle: saline with Tween-80); 89 % of control (dose: 400.0 mg/kg/injection, schedule: Q01DX009 (ip), vehicle: saline with Tween-80).

On to `COC(=O)C1(C)COP(=O)(NC2CCCCC2)OC1` (configuration not stated), for which the T/C is 94 % of control under setting [1]; 97 % of control under setting [2]; 108 % of control (dose: 400.0 mg/kg/injection, schedule: Q01DX001 (ip), vehicle: saline).

In the case of `Clc1nc2ccccc2nc1Cl`, the T/C is, setting by setting: (dose: 12.5 mg/kg/injection, schedule: Q04DX003 (sc), vehicle: olive oil, sesame oil, peanut oil) 98 % of control; (dose: 25.0 mg/kg/injection, schedule: Q04DX003 (sc), vehicle: olive oil, sesame oil, peanut oil) 109 % of control.

As to `CNc1ccccc1C(=O)N/N=C/c1c(O)ccc2ccccc12`, the T/C is, setting by setting: (dose: 100.0 mg/kg/injection, schedule: Q04DX002 (ip), vehicle: saline) 99 % of control; (dose: 200.0 mg/kg/injection, schedule: Q04DX002 (ip), vehicle: saline) 96 % of control; (dose: 400.0 mg/kg/injection, schedule: Q04DX002 (ip), vehicle: saline) 96 % of control.

In the case of `COc1ccc(S(=O)(=O)NC(=O)NC23CC4CC(CC(C4)C2)C3)cc1`, the T/C reads like this: (dose: 50.0 mg/kg/injection, schedule: Q01DX009 (ip), vehicle: Klucel (hydroxypropylcellulose) (HPC)) 91 % of control; under setting [3], 98 % of control; under setting [4], 97 % of control; under setting [6], 97 % of control; under setting [8], 94 % of control.

For the origin of these results see PubChem BioAssay AID248 (DTP/NCI, 2004).
